Measured values as given in patent US9546144B2, “Bifunctional compounds” (University of Pittsburgh—of the Commonwealth System of …, priority 2011, dated 2017).

Columns and labels:
Brine shrimp = test: brine shrimp toxicity assay; format: in vivo; conditions: concentrations up to 20 mg/mL
Description: General procedure for brine shrimp toxicity assays. Sample preparation. Stock solutions of 3 were prepared by dissolving 3 (50.0 mg) in 5.0 HPLC grade water (5.0 mL), (solution A) and 3 (2.50 g) in HPLC grade water (10.0 mL) (solution B). Stock solutions of DMSO were prepared by diluting DMSO (45 μL) with HPLC grade water (5.0 mL) (solution C) and DMSO (2.27 mL) with HPLC grade water (10.0 mL) (solution D).
In each case, 5 replicates were performed. Each replicate was performed in a 2 dram vial marked at the 4 and 5 mL volume points. To each vial was added artificial sea water (3 mL) followed by the appropriate volume of stock solution. For set 1 (1.0 mg/mL), solution A (0.500 mL) or solution C (0.500 mL) was added. For set 2 (5.0 mg/mL), solution B (0.100 mL) or solution D (0.100 mL) was added to each vial. For set 3 (20.0 mg/mL), solution B (0.400 mL) or solution D (0.400 mL) was added to each vial. For set 4 (50.0 mg/mL), solution B (1.00 mL) or solution D (1.00 mL) was added to each vial. […]
Brine shrimp eggs (San Francisco Bay Brand) were hatched in a commercial salt mixture (Instant Ocean). […] The shrimp were counted at t=24 h. Another drop of freshly prepared yeast solution (6 mg in 10 mL sea water) was added, the vials were maintained under illumination, and shrimp were counted at t=48 h. […]

[1] = log P by shake-flask method; format: physicochemical; conditions: n-octanol/water, rt (23.5° C.), average of 3 trials, read-out: log P (octanol-water partition coefficient)
Description: Determination of log P Value of 3.
The log P (octanol-water partition coefficient) was determined using the shake-flask method. Three determinations were made. A representative procedure is as follows: a 250-mL separatory funnel was charged with a solution of 3 (50.0 mg) in water (50.0 mL) and n-octanol (50.0 mL). The funnel was capped and inverted 100 times. The funnel and contents were left to stand at rt (23.5° C.) for 40 h. Aliquots of both phases were analyzed by UV/VIS (214 nm for the aqueous layer and 218 nm for the octanol layer), and the concentration in each layer was determined using previously generated calibration curves. In the case of the aqueous layer, a 10-fold dilution was necessary prior to measurement. All measurements were run in triplicate. The log P was determined as log ([3]octanol/[3]aqueous), and the average log P value from the 3 trials was −0.87.

C57BL/6NTac mice = test: radiation pulmonary fibrosis and survival after 20 Gy thoracic irradiation; format: in vivo, mouse; conditions: in drinking water
Excerpt: FIG. 23. MMS350 in drinking water decreases fibrosis in the lungs of thoracic irradiated (20 Gy) mice.
For lung irradiation, mice were irradiated to the thoracic cavity with shielding of the head and neck region and abdomen and lower body according to published methods. Animals received 20 Gy single fraction thoracic irradiation and were then maintained according to IACUC directed laboratory conditions. Mice were sacrificed at serial time points after thoracic irradiation including pre-irradiation, days 2, 7, 14, 28, 50, 75, 100, 110, 150 and 200 post-irradiation. Lungs were removed and sagittal sections assayed for percent of lung replaced by fibroblasts and organizing alveolitis according to published methods.
Lungs from irradiated and luc+ cell line injected mice were removed and serial sectioned. Sections were stained for luc+, GFP+ cells, BrdU incorporation, and for quantitation of percent lung replaced by fibrosis (organizing alveolitis) according to published methods.
Mice were injected intra-peritoneally with MMS350 or JP4-039 (GS-nitroxide) in 50% cremphor/50% ethanol according to published methods. For long-term administration of MMS350, the drug was administered in water bottles with bottles changed every 7 days. The dose of drug per bottle was 100 μM MMS350 starting on day 88. […]

CC1(C[S+]([O-])CC2(C)COC2)COC1 [compound 3, 3,3′-Sulfinylbis(methylene)bis(3-methyloxetane)]
mortality after 48 h (Brine shrimp): < 10%
logP at 40 h [1]: -0.87
survival of thoracic irradiated mice (C57BL/6NTac mice): significantly increased survival
